Source: patent US20240307526A1, “COMPOSITIONS COMPRISING HYDROXYETHYL-CAPPED CATIONIC PEPTOIDS” (priority 2021, published 2024)

Experiment: Efficacy and toxicology studies (Table 9), intramuscular in rat
Settings: mouse efficacy and rat toxicology studies; formulated in DV-140-F2

CCCCCCCCCCN(CC(N)=O)C(=O)CN(CCCCCCCCCC)C(=O)CN(CCCCCCCCCC)C(=O)CN(CCCCCCCCCC)C(=O)CNCCO [Compound 140]
tolerability: well-tolerated
